Measured values published in US11021457B2, “Class of isoindolone-imide ring-1,3-dione-2-ene compounds, composition and use thereof” (WIGEN BIOMEDICINE TECHNOLOGY (SHANGHAI) CO., LTD., priority 2017, dated 2021).

Assays:
Type in all cases: cell-based
MDA-MB-453 = experiment: Inhibition of tumor cell proliferation, CellTiter-Glo, MDA-MB-453; settings: compound concentration 50 μM, 72 hours; for cell survival rate (%) at 50 µM: Homo sapiens, MDA-MB-453, read-out: Inhibitory activity against proliferation (cell survival rate) MDA-MB-453
Experimental: (§1) For various cell lines, the corresponding complete medium was used, and culture was carried out in an incubator at 37° C. with 5% CO2. The cells were counted, and inoculated into a 96-well plate at 2000-10000 cells/100 μl per well according to the cell volume and growth rate. The suspended cells were treated immediately, and the adherent cells were treated after adherence. The CellTiter-Glo method was used to detect the changes in cell viability 72 hours after the administration, and the cell survival rate at different concentrations was calculated by a formula: Survival rate (%)=(RLU of treatment well−RLU of blank well)/(RLU of control well−RLU of blank well)×100.
(§2) Method for expressing the inhibitory activity of the compounds against the proliferation of tumor cells: Evaluation was made based on the cell survival rate at a compound concentration of 50 μM. 60≤survival rate (%)<90 is considered to have low inhibitory activity against the proliferation of tumor cells (+); 30<survival rate (%)≤60 is considered to have moderate inhibitory activity against the proliferation of tumor cells (++); and survival rate (%)≤30 is considered to have high inhibitory activity against the proliferation of tumor cells (+++).

K562 = experiment: Inhibition of tumor cell proliferation, CellTiter-Glo, K562; settings: compound concentration 50 μM, 72 hours; for cell survival rate (%) at 50 µM: Homo sapiens, K562, read-out: Inhibitory activity against proliferation (cell survival rate) K562
Experimental: as §1, §2

SU-DHL6 = experiment: Inhibition of tumor cell proliferation, CellTiter-Glo, SU-DHL6; settings: compound concentration 50 μM, 72 hours; for cell survival rate (% of control) at 50 µM: Homo sapiens, SU-DHL-6, read-out: Inhibitory activity against proliferation (cell survival rate) SU-DHL6
Experimental: as §1, §2

BxPC-3 = experiment: Inhibition of tumor cell proliferation, CellTiter-Glo, BxPC-3; settings: compound concentration 50 μM, 72 hours; for cell survival rate (%) at 50 µM: Homo sapiens, BXPC-3, read-out: Inhibitory activity against proliferation (cell survival rate) BxPC-3
Experimental: as §1, §2

RPMI-8226 = experiment: Inhibition of tumor cell proliferation, CellTiter-Glo, RPMI-8226; settings: compound concentration 50 μM, 72 hours; for cell survival rate (% of control) at 50 µM: Homo sapiens, RPMI-8226, read-out: Inhibitory activity against proliferation (cell survival rate) RPMI-8226
Experimental: as §1, §2

A549 = experiment: Inhibition of tumor cell proliferation, CellTiter-Glo, A549; settings: compound concentration 50 μM, 72 hours; for cell survival rate (% of control) at 50 µM: Homo sapiens, A549, read-out: Inhibitory activity against proliferation (cell survival rate) A549
Experimental: as §1, §2

Row | SMILES | Inhibitory activity against proliferation (cell survival rate) MDA-MB-453 (MDA-MB-453) | Inhibitory activity against proliferation (cell survival rate) K562 (K562) | Inhibitory activity against proliferation (cell survival rate) SU-DHL6 (SU-DHL6) | Inhibitory activity against proliferation (cell survival rate) BxPC-3 (BxPC-3) | Inhibitory activity against proliferation (cell survival rate) RPMI-8226 (RPMI-8226) | Inhibitory activity against proliferation (cell survival rate) A549 (A549) | cell survival rate (%) at 50 µM (MDA-MB-453) [%] | cell survival rate (%) at 50 µM (K562) [%] | cell survival rate (% of control) at 50 µM (SU-DHL6) [%] | cell survival rate (%) at 50 µM (BxPC-3) [%] | cell survival rate (% of control) at 50 µM (RPMI-8226) [%] | cell survival rate (% of control) at 50 µM (A549) [%]
1 | O=C1CCC(N2Cc3c(NCCN4CCN(CCNC=C5C(=O)CC(c6ccccc6)CC5=O)CC4)cccc3C2=O)C(=O)N1 (stereo not drawn) [Compound 107] | ++ (30<survival rate (%)≤60) | +++ (survival rate (%)≤30) | + (60≤survival rate (%)<90) | + (60≤survival rate (%)<90) | +++ (survival rate (%)≤30) | +++ (survival rate (%)≤30) | – | – | – | – | – | –
2 | O=C1CCC(N2Cc3c(NC(=O)CCC(=O)OCCN4CCN(CCNC=C5C(=O)CC(c6ccccc6)CC5=O)CC4)cccc3C2=O)C(=O)N1 (stereo not drawn) [Compound 56] | +++ (survival rate (%)≤30) | + (60≤survival rate (%)<90) | +++ (survival rate (%)≤30) | + (60≤survival rate (%)<90) | + (60≤survival rate (%)<90) | +++ (survival rate (%)≤30) | – | – | – | – | – | –
3 | O=C1CCC(N2Cc3c(NC=C4C(=O)CC(c5ccccc5)C(F)C4=O)cccc3C2=O)C(=O)N1 (stereo not drawn) [Compound 28] | – | – | – | – | – | – | ≤ 30 | ≤ 30 | ≤ 30 | 30 to 60 | ≤ 30 | ≤ 30
4 | O=C1CCC(N2Cc3c(NC(=O)OCc4cnc(NC=C5C(=O)CC(c6ccccc6)CC5=O)s4)cccc3C2=O)C(=O)N1 (stereo not drawn) [Compound 84] | +++ (survival rate (%)≤30) | +++ (survival rate (%)≤30) | +++ (survival rate (%)≤30) | + (60≤survival rate (%)<90) | +++ (survival rate (%)≤30) | + (60≤survival rate (%)<90) | – | – | – | – | – | –
5 | O=C1CCC(N2Cc3c(NC=C4C(=O)NC(c5ccccc5)NC4=O)cccc3C2=O)C(=O)N1 (stereo not drawn) [Compound 115] | – | – | – | – | – | – | ≤ 30 | 30 to 60 | 30 to 60 | 60 to 90 | 60 to 90 | 30 to 60
6 | O=C1CCC(N2C(=O)c3ccc(NC=C4C(=O)CC(c5ccccc5)CC4=O)cc3C2=O)C(=O)N1 (stereo not drawn) [Compound 9] | + (60≤survival rate (%)<90) | ++ (30<survival rate (%)≤60) | + (60≤survival rate (%)<90) | ++ (30<survival rate (%)≤60) | ++ (30<survival rate (%)≤60) | ++ (30<survival rate (%)≤60) | – | – | – | – | – | –
7 | O=C1CCC(N2Cc3c(NC=C4C(=O)CC(c5ccccc5F)CC4=O)cccc3C2=O)C(=O)N1 (stereo not drawn) [Compound 24] | ++ (30<survival rate (%)≤60) | + (60≤survival rate (%)<90) | +++ (survival rate (%)≤30) | ++ (30<survival rate (%)≤60) | + (60≤survival rate (%)<90) | ++ (30<survival rate (%)≤60) | – | – | – | – | – | –
8 | O=C1CCC(N2Cc3c(NC=C4C(=O)CC(c5cccs5)CC4=O)cccc3C2=O)C(=O)N1 (stereo not drawn) [Compound 36] | ++ (30<survival rate (%)≤60) | + (60≤survival rate (%)<90) | +++ (survival rate (%)≤30) | + (60≤survival rate (%)<90) | + (60≤survival rate (%)<90) | + (60≤survival rate (%)<90) | – | – | – | – | – | –
